Measured values taken from US11332459B2 (TEIJIN PHARMA LIMITED, priority 2017, dated 2022).
Where a name gives a salt, the structure may show the parent alone.

What follows are molecules tested against T1, human TRPC6 (Homo sapiens, UniProt Q9Y210) (assay: TRPC6 calcium flux assay (FLIPR, OAG-stimulated calcium influx)). Conditions: HEK293 cells stably transfected with human TRPC6, read-out: hTRPC6 Potency.
T1 construct: expressed in transfected cells
T1 sequence (Q9Y210 1-931): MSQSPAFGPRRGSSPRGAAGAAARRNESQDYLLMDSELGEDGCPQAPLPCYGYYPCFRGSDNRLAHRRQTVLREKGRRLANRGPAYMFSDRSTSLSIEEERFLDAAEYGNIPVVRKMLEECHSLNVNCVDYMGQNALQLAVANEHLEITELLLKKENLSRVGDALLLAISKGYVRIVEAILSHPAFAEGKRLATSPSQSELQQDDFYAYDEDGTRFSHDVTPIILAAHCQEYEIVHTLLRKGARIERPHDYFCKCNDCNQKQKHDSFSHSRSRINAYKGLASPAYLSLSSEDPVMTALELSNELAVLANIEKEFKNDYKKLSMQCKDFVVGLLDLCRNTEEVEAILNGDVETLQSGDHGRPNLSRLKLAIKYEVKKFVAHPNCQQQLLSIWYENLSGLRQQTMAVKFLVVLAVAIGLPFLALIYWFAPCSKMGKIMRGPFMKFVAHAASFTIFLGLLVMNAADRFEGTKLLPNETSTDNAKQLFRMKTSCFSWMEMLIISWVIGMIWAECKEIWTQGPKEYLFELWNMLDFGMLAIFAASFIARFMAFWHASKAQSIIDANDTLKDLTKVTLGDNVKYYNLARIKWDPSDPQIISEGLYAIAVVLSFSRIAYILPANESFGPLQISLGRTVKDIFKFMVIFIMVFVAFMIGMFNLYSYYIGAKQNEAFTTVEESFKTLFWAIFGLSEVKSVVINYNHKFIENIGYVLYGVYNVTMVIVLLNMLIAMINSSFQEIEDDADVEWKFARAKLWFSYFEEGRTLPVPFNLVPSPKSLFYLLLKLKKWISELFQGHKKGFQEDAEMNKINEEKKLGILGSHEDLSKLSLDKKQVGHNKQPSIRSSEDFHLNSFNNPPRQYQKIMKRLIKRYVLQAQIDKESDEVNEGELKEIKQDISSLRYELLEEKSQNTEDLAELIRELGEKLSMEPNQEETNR
Assay type: cell-based
Procedure, shortened: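 IC50 derived by plotting background-corrected peak fluorescence (180 s window, normalized to OAG-triggered signal vs buffer) against dose. Stable human TRPC6 HEK293 line was dye-loaded, exposed to compound 25 min, then challenged with 50 uM final OAG in 2 mM Ca2+ HEPES buffer pH 7.2, 0.5% DMSO.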

First: CN(CC(F)(F)F)C(=O)Cn1c(N2CC[C@@H](F)[C@H](N)C2)nc2c(F)cc(F)cc21 [Example 558, 2-(2-((3R,4R)-3-amino-4-fluoropiperidin-1-yl)-4,6-difluoro-1H-benzo[d]imidazol-1-yl)-N-methyl-N-(2,2,2-trifluoroethyl)acetamide]
Second: C[C@H](c1ccc(C#N)cn1)n1c(N2CC[C@H]3OCCN[C@@H]3C2)nc2cc(F)cc(F)c21 [Example 271, 6-((1R)-1-(5,7-difluoro-2-((4aR,8aR)-hexahydro-2H-pyrido[4,3-b][1,4]oxazin-6(5H)-yl)-1H-benzimidazol-1-yl)ethyl)-3-pyridinecarbonitrile]
The IC50 of the first is 9.8-fold lower: 0.0161 µM for the first, 0.158 µM for the second. The first is the more potent here.

CC1CCN(C(=O)Cn2c(N3CC[C@@H](F)[C@H](N)C3)nc3cc(F)c(F)cc32)CC1 [Example 516, 2-(2-((3R,4R)-3-amino-4-fluoropiperidin-1-yl)-5,6-difluoro-1H-benzo[d]imidazol-1-yl)-1-(4-methylpiperidin-1-yl)ethan-1-one] and CC(C)NC(=O)Cn1c(N2CC[C@@H](F)[C@H](N)C2)nc2cc(F)c(F)cc21 [Example 235, 2-(2-((3R,4R)-3-amino-4-fluoropiperidin-1-yl)-5,6-difluoro-1H-benzo[d]imidazol-1-yl)-N-isopropylacetamide] are within 1.5-fold of each other in IC50: 0.197 µM for the first, 0.15 µM for the second.

Compared with C[C@@H](c1ccc(C#N)cn1)n1c(N2CC[C@@H](F)[C@H](N)C2)nc2ccc(C#N)cc21 [Example 225, 2-((3R,4R)-3-amino-4-fluoropiperidin-1-yl)-1-((S)-1-(5-cyanopyridin-2-yl)ethyl)-1H-benzo[d]imidazole-6-carbonitrile hydrochloride], C[C@H](c1ccc(OC(F)(F)F)cc1)n1c(N2CC[C@@H](F)[C@H](N)C2)nc2cc(F)c(F)cc21 [Example 337, (3R,4R)-1-(5,6-difluoro-1-((1R)-1-(4-(trifluoromethoxy)phenyl)ethyl)-1H-benzimidazol-2-yl)-4-fluoro-3-piperidinamine] is higher in IC50: 0.00281 µM for the first, > 3.75 µM for the second. The first is the more potent here.

Going from “(3R,4R)-4-fluoro-1-(6- fluoro-1-((4- methoxypyridin-2- yl)methyl)-1H- benzo[d]imidazol-2- yl)piperidin-3-amine [Example 517]” to N[C@@H]1CCCN(c2nc3ccccc3n2Cc2ccc(-n3cncn3)cc2)C1 [Example 371, (R)-1-(1-(4-(1H-1,2,4-triazol-1-yl)benzyl)-1H-benzo[d]imidazol-2-yl)piperidin-3-amine], the IC50 rises from 0.319 µM to 6.83 µM (21-fold).

Compared with C[C@@H]1COCCN1C(=O)Cn1c(N2CC[C@@H](F)[C@H](N)C2)nc2ccc(F)cc21 [Example 681, 2-(2-((3R,4R)-3-amino-4-fluoropiperidin-1-yl)-6-fluoro-1H-benzo[d]imidazol-1-yl)-1-((R)-3-methylmorpholino)ethan-1-one], N#Cc1ccc(Cn2c(N3CCC[C@@]4(CCCCN4)C3)nc3ccccc32)nc1 [Example 130, 6-((2-((6S)-1,8-diazaspiro[5.5]undecan-8-yl)-1H-benzimidazol-1-yl)methyl)-3-pyridinecarbonitrile] is 1.6-fold higher in IC50: 0.168 µM for the first, 0.269 µM for the second. The first is the more potent here.

First: N[C@@H]1CN(c2nc3ccc(Cl)cc3n2CC(=O)N2CCC2)CC[C@H]1F [Example 285, 2-(2-((3R,4R)-3-amino-4-fluoro-1-piperidinyl)-6-chloro-1H-benzimidazol-1-yl)-1-(1-azetidinyl)ethanone]
Second: N#Cc1ccc(Cn2c(N3CCC(F)(F)[C@H](N)C3)nc3cc(C#N)ccc32)nc1 [Example 56, (R)-2-(3-amino-4,4-difluoropiperidin-1-yl)-1-((5-cyanopyridin-2-yl)methyl)-1H-benzo[d]imidazole-5-carbonitrile]
The IC50 of the first is 14-fold higher: 0.185 µM for the first, 0.0135 µM for the second.

Going from CN[C@@H]1CN(c2nc3c(F)cc(F)cc3n2[C@@H](C)c2ccc(C#N)cn2)CC[C@H]1F (single isomer, unassigned) [Example 439] to COc1cccc2c1nc(N1CC[C@@H](F)[C@H](N)C1)n2Cc1ccc(C#N)cc1 [Example 411, 4-((2-((3R,4R)-3-amino-4-fluoropiperidin-1-yl)-4-methoxy-1H-benzo[d]imidazol-1-yl)methyl)benzonitrile], the IC50 falls from 0.0367 µM to 0.00268 µM (14-fold). The second is the more potent here.

Compared with N[C@@H]1CN(c2nc3cc(F)c(F)cc3n2CC(=O)N2CC3(C2)CC(F)(F)C3)CC[C@H]1F [Example 430, 2-(2-((3R,4R)-3-amino-4-fluoropiperidin-1-yl)-5,6-difluoro-1H-benzo[d]imidazol-1-yl)-1-(6,6-difluoro-2-azaspiro[3.3]heptan-2-yl)ethanone], N#Cc1cnc(Cn2c(N3CC[C@@H](F)[C@H](N)C3)nc3c(F)cc(F)cc32)cn1 [Example 251, 5-((2-((3R,4R)-3-amino-4-fluoro-1-piperidinyl)-4,6-difluoro-1H-benzimidazol-1-yl)methyl)-2-pyrazinecarbonitrile] is 51-fold lower in IC50: 0.88 µM for the first, 0.0172 µM for the second.

First: CN(CC(F)(F)F)C(=O)Cn1c(N2CCC(F)(F)[C@H](N)C2)nc2ccc(F)cc21 [Example 465, (R)-2-(2-(3-amino-4,4-difluoropiperidin-1-yl)-6-fluoro-1H-benzo[d]imidazol-1-yl)-N-methyl-N-(2,2,2-trifluoroethyl)acetamide]
Second: COc1cnc(Cn2c(N3CC[C@@H](F)[C@H](N)C3)nc3ccc(F)cc32)nc1 [Example 444, (3R,4R)-4-fluoro-1-(6-fluoro-1-((5-methoxypyrimidin-2-yl)methyl)-1H-benzo[d]imidazol-2-yl)piperidin-3-amine]
The IC50 of the first is 20-fold higher: 0.0867 µM for the first, 0.00442 µM for the second. The second is the more potent here.

Going from N[C@@H]1CN(c2nc3ccccc3n2Cc2ccc(Cl)cn2)CC[C@H]1F [Example 211, (3R,4R)-1-(1-((5-chloropyridin-2-yl)methyl)-1H-benzo[d]imidazol-2-yl)-4-fluoropiperidin-3-amine hydrochloride] to COc1ccc2nc(N3CC[C@H](F)[C@H](N)C3)n(Cc3ccc(C#N)cc3)c2c1 [Example 403, 4-((2-((3R,4S)-3-amino-4-fluoropiperidin-1-yl)-6-methoxy-1H-benzo[d]imidazol-1-yl)methyl)benzonitrile], the IC50 falls from 0.0011 µM to 0.000395 µM (2.8-fold). The second is the more potent here.

First: CN[C@@H]1CN(c2nc3cc(F)ccc3n2CC(=O)N(C)CC(F)(F)F)CC[C@H]1F [Example 479, 2-(5-fluoro-2-((3R,4R)-4-fluoro-3-(methylamino)piperidin-1-yl)-1H-benzo[d]imidazol-1-yl)-N-methyl-N-(2,2,2-trifluoroethyl)acetamide]
Second: N#Cc1cc(F)cc2c1nc(N1CCC(F)(F)[C@H](N)C1)n2Cc1ncc(Cl)cn1 [Example 151, (R)-2-(3-amino-4,4-difluoropiperidin-1-yl)-1-((5-chloropyrimidin-2-yl)methyl)-6-fluoro-1H-benzo[d]imidazole-4-carbonitrile]
The IC50 of the first is 200-fold higher: 1.2 µM for the first, 0.00606 µM for the second.

First: NC(=O)C1CCN(C(=O)Cn2c(N3CC[C@@H](F)[C@H](N)C3)nc3cc(F)c(F)cc32)CC1 [Example 532, 1-(2-(2-((3R,4R)-3-amino-4-fluoropiperidin-1-yl)-5,6-difluoro-1H-benzo[d]imidazol-1-yl)acetyl)piperidine-4-carbaxamide]
Second: CC(CC#N)N(C)C(=O)Cn1c(N2CC[C@@H](F)[C@H](N)C2)nc2cc(F)c(F)cc21 (mixture of isomers) [Example 612, 2-(2-((3R,4R)-3-amino-4-fluoropiperidin-1-yl)-5,6-difluoro-1H-benzo[d]imidazol-1-yl)-N-(1-cyanopropan-2-yl)-N-methylacetamide]
The IC50 of the first is higher: > 3.75 µM for the first, 0.0224 µM for the second.

Compared with N#Cc1ccc(Cn2c(N3CC[C@H](F)[C@H](N)C3)nc3c(Cl)cccc32)nc1 [Example 5], C[C@@H](c1ccc(C#N)cn1)n1c(N2CCC[C@H](N)C2)nc2ccccc21 [Example 296, 6-((S)-1-(2-((S)-3-aminopiperidin-1-yl)-1H-benzo[d]imidazol-1-yl)ethyl)nicotinonitrile hydrochloride] is 2.6-fold higher in IC50: 0.00292 µM for the first, 0.00765 µM for the second. The first is the more potent here.

First: C[C@@H]1CCN(c2nc3ccccc3n2Cc2ccc(C#N)cc2)C[C@@H]1N [Example 163, 4-((2-((3R,4R)-3-amino-4-methylpiperidin-1-yl)-1H-benzo[d]imidazol-1-yl)methyl)benzonitrile]
Second: N[C@@H]1CN(c2nc3ccc(F)cc3n2CC(=O)N[C@@H]2CCOC2)CC[C@H]1F [Example 676, 2-(2-((3R,4R)-3-amino-4-fluoropiperidin-1-yl)-6-fluoro-1H-benzo[d]imidazol-1-yl)-N-((R)-tetrahydrofuran-3-yl)acetamide]
The IC50 of the first is lower: 2.84 µM for the first, > 3.75 µM for the second. The first is the more potent here.

For N#Cc1ccc(Cn2c(N3CCC[C@H](N)C3)nc3ccccc32)c(Cl)c1 [Example 321, (S)-4-((2-(3-aminopiperidin-1-yl)-1H-benzo[d]imidazol-1-yl)methyl)-3-chlorobenzonitrile hydrochloride], the IC50 was 0.00407 µM.
